Where a name gives a salt, the structure may show the parent alone.
Assays:
Conditions in all cases: exposure time: 72 h
E34 [1] = patient-derived glioblastoma stem cells of proneural subtype; assay: phenotypic distance (Euclidean, principal components) from DMSO controls (arbitrary units); higher = stronger morphological change
E31 [2] = patient-derived glioblastoma stem cells of proneural subtype; assay: as above
E21 [3] = patient-derived glioblastoma stem cells of mesenchymal subtype; assay: as above
E28 [4] = patient-derived glioblastoma stem cells of classical subtype; assay: as above
E57 [5] = patient-derived glioblastoma stem cells of mesenchymal subtype; assay: as above
E13 [6] = patient-derived glioblastoma stem cells of classical subtype; assay: as above
FT3469 [7] = normal neural stem cell line; assay: as above
E34 [8] = assay: surviving fraction (nuclei count normalised to DMSO); higher = more cells surviving (less toxic)
E31 [9] = assay: as above
E21 [10] = assay: as above
E28 [11] = assay: as above
E57 [12] = assay: as above
E13 [13] = assay: as above
FT3469 [14] = assay: as above
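Throughout, for phenotypic distance (Euclidean, principal components) from DMSO controls: cell Painting imaging in 384-well plates, CellProfiler features reduced to at least 20 principal components, Euclidean distance versus same-plate DMSO vehicle wells (0.1% v/v), median over six images per well.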
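Throughout, for surviving fraction (nuclei count normalised to DMSO): nuclei counted by high-content imaging of Hoechst-stained cells in laminin-coated 384-well plates, relative to 0.1% DMSO vehicle wells, with staurosporine as cell-death control.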

Cc1cc(Nc2cc(N3CCN(C)CC3)nc(Sc3ccc(NC(=O)C4CC4)cc3)n2)n[nH]1 [Tozasertib]
Conditions | phenotypic distance | surviving fraction
E13 [6], 4.1 nM | 1.12 | –
E13 [6], 12.3 nM | 0.667 | –
E13 [6], 37 nM | 1.66 | –
E13 [6], 111.1 nM | 4.34 | –
E13 [6], 333.3 nM | 4.49 | –
E13 [6], 1000 nM | 4.52 | –
E13 [6], 3000 nM | 4.41 | –
E13 [13], 4.1 nM | – | 0.866
E13 [13], 12.3 nM | – | 0.951
E13 [13], 37 nM | – | 0.797
E13 [13], 111.1 nM | – | 0.519
E13 [13], 333.3 nM | – | 0.467
E13 [13], 1000 nM | – | 0.391
E13 [13], 3000 nM | – | 0.413
E21 [3], 4.1 nM | 1.38 | –
E21 [3], 12.3 nM | 0.727 | –
E21 [3], 37 nM | 1.05 | –
E21 [3], 111.1 nM | 2.02 | –
E21 [3], 333.3 nM | 5.67 | –
E21 [3], 1000 nM | 6.71 | –
E21 [3], 3000 nM | 6.04 | –
E21 [10], 4.1 nM | – | 0.847
E21 [10], 12.3 nM | – | 0.898
E21 [10], 37 nM | – | 0.798
E21 [10], 111.1 nM | – | 0.743
E21 [10], 333.3 nM | – | 0.288
E21 [10], 1000 nM | – | 0.215
E21 [10], 3000 nM | – | 0.224
E28 [4], 4.1 nM | 0.827 | –
E28 [4], 12.3 nM | 1.02 | –
E28 [4], 37 nM | 1.05 | –
E28 [4], 111.1 nM | 2.58 | –
E28 [4], 333.3 nM | 2.63 | –
E28 [4], 1000 nM | 2.85 | –
E28 [4], 3000 nM | 2.36 | –
E28 [11], 4.1 nM | – | 0.971
E28 [11], 12.3 nM | – | 0.855
E28 [11], 37 nM | – | 0.81
E28 [11], 111.1 nM | – | 0.555
E28 [11], 333.3 nM | – | 0.535
E28 [11], 1000 nM | – | 0.453
E28 [11], 3000 nM | – | 0.482
E31 [2], 4.1 nM | 0.87 | –
E31 [2], 12.3 nM | 0.54 | –
E31 [2], 37 nM | 1.16 | –
E31 [2], 111.1 nM | 3.12 | –
E31 [2], 333.3 nM | 2.58 | –
E31 [2], 1000 nM | 3.12 | –
E31 [2], 3000 nM | 2.47 | –
E31 [9], 4.1 nM | – | 0.944
E31 [9], 12.3 nM | – | 0.959
E31 [9], 37 nM | – | 0.697
E31 [9], 111.1 nM | – | 0.423
E31 [9], 333.3 nM | – | 0.404
E31 [9], 1000 nM | – | 0.311
E31 [9], 3000 nM | – | 0.33
E34 [1], 4.1 nM | 1.42 | –
E34 [1], 12.3 nM | 0.649 | –
E34 [1], 37 nM | 0.729 | –
E34 [1], 111.1 nM | 2.85 | –
E34 [1], 333.3 nM | 2.79 | –
E34 [1], 1000 nM | 2.34 | –
E34 [1], 3000 nM | 2.29 | –
E34 [8], 4.1 nM | – | 0.814
E34 [8], 12.3 nM | – | 0.878
E34 [8], 37 nM | – | 0.929
E34 [8], 111.1 nM | – | 0.744
E34 [8], 333.3 nM | – | 0.711
E34 [8], 1000 nM | – | 0.728
E34 [8], 3000 nM | – | 0.722
E57 [5], 4.1 nM | 0.542 | –
E57 [5], 12.3 nM | 0.685 | –
E57 [5], 37 nM | 0.782 | –
E57 [5], 111.1 nM | 4.65 | –
E57 [5], 333.3 nM | 7.94 | –
E57 [5], 1000 nM | 8.6 | –
E57 [5], 3000 nM | 8.14 | –
E57 [12], 4.1 nM | – | 0.966
E57 [12], 12.3 nM | – | 0.942
E57 [12], 37 nM | – | 0.963
E57 [12], 111.1 nM | – | 0.484
E57 [12], 333.3 nM | – | 0.241
E57 [12], 1000 nM | – | 0.19
E57 [12], 3000 nM | – | 0.197
FT3469 [7], 4.1 nM | 0.795 | –
FT3469 [7], 12.3 nM | 0.771 | –
FT3469 [7], 37 nM | 0.921 | –
FT3469 [7], 111.1 nM | 2.37 | –
FT3469 [7], 333.3 nM | 2.57 | –
FT3469 [7], 1000 nM | 2.47 | –
FT3469 [7], 3000 nM | 2.16 | –
FT3469 [14], 4.1 nM | – | 0.899
FT3469 [14], 12.3 nM | – | 0.836
FT3469 [14], 37 nM | – | 0.773
FT3469 [14], 111.1 nM | – | 0.688
FT3469 [14], 333.3 nM | – | 0.737
FT3469 [14], 1000 nM | – | 0.697
FT3469 [14], 3000 nM | – | 0.579

C=CC(=O)Nc1cc(Nc2nccc(-c3cn(C)c4ccccc34)n2)c(OC)cc1N(C)CCN(C)C [Osimertinib mesylate]
Conditions | phenotypic distance | surviving fraction
E13 [6], 4.1 nM | 0.974 | –
E13 [6], 12.3 nM | 0.598 | –
E13 [6], 37 nM | 0.826 | –
E13 [6], 111.1 nM | 0.647 | –
E13 [6], 333.3 nM | 1.84 | –
E13 [6], 1000 nM | 1.28 | –
E13 [6], 3000 nM | 2.96 | –
E13 [13], 4.1 nM | – | 0.883
E13 [13], 12.3 nM | – | 1
E13 [13], 37 nM | – | 0.978
E13 [13], 111.1 nM | – | 0.951
E13 [13], 333.3 nM | – | 1.03
E13 [13], 1000 nM | – | 0.935
E13 [13], 3000 nM | – | 0.547
E21 [3], 4.1 nM | 0.814 | –
E21 [3], 12.3 nM | 0.422 | –
E21 [3], 37 nM | 1.04 | –
E21 [3], 111.1 nM | 0.922 | –
E21 [3], 333.3 nM | 1.1 | –
E21 [3], 1000 nM | 1.12 | –
E21 [3], 3000 nM | 4.6 | –
E21 [10], 4.1 nM | – | 1.11
E21 [10], 12.3 nM | – | 0.955
E21 [10], 37 nM | – | 0.892
E21 [10], 111.1 nM | – | 1.05
E21 [10], 333.3 nM | – | 0.931
E21 [10], 1000 nM | – | 0.909
E21 [10], 3000 nM | – | 0.455
E28 [4], 4.1 nM | 0.567 | –
E28 [4], 12.3 nM | 0.684 | –
E28 [4], 37 nM | 0.633 | –
E28 [4], 111.1 nM | 1.15 | –
E28 [4], 333.3 nM | 0.864 | –
E28 [4], 1000 nM | 1.16 | –
E28 [4], 3000 nM | 2.16 | –
E28 [11], 4.1 nM | – | 0.973
E28 [11], 12.3 nM | – | 1.04
E28 [11], 37 nM | – | 0.86
E28 [11], 111.1 nM | – | 1.01
E28 [11], 333.3 nM | – | 0.864
E28 [11], 1000 nM | – | 0.922
E28 [11], 3000 nM | – | 0.496
E31 [2], 4.1 nM | 0.452 | –
E31 [2], 12.3 nM | 0.55 | –
E31 [2], 37 nM | 1.12 | –
E31 [2], 111.1 nM | 0.652 | –
E31 [2], 333.3 nM | 0.826 | –
E31 [2], 1000 nM | 1.22 | –
E31 [2], 3000 nM | 2.48 | –
E31 [9], 4.1 nM | – | 0.963
E31 [9], 12.3 nM | – | 0.947
E31 [9], 37 nM | – | 1.02
E31 [9], 111.1 nM | – | 0.92
E31 [9], 333.3 nM | – | 0.743
E31 [9], 1000 nM | – | 0.773
E31 [9], 3000 nM | – | 0.435
E34 [1], 4.1 nM | 0.472 | –
E34 [1], 12.3 nM | 0.514 | –
E34 [1], 37 nM | 0.843 | –
E34 [1], 111.1 nM | 0.747 | –
E34 [1], 333.3 nM | 1.66 | –
E34 [1], 1000 nM | 0.95 | –
E34 [1], 3000 nM | 1.31 | –
E34 [8], 4.1 nM | – | 0.904
E34 [8], 12.3 nM | – | 0.975
E34 [8], 37 nM | – | 0.973
E34 [8], 111.1 nM | – | 0.878
E34 [8], 333.3 nM | – | 1.13
E34 [8], 1000 nM | – | 0.996
E34 [8], 3000 nM | – | 0.702
E57 [5], 4.1 nM | 0.541 | –
E57 [5], 12.3 nM | 0.746 | –
E57 [5], 37 nM | 0.59 | –
E57 [5], 111.1 nM | 1.02 | –
E57 [5], 333.3 nM | 1.3 | –
E57 [5], 1000 nM | 1.38 | –
E57 [5], 3000 nM | 3.02 | –
E57 [12], 4.1 nM | – | 0.979
E57 [12], 12.3 nM | – | 0.953
E57 [12], 37 nM | – | 0.84
E57 [12], 111.1 nM | – | 0.864
E57 [12], 333.3 nM | – | 0.875
E57 [12], 1000 nM | – | 0.79
E57 [12], 3000 nM | – | 0.547
FT3469 [7], 4.1 nM | 0.624 | –
FT3469 [7], 12.3 nM | 0.753 | –
FT3469 [7], 37 nM | 0.623 | –
FT3469 [7], 111.1 nM | 0.801 | –
FT3469 [7], 333.3 nM | 0.702 | –
FT3469 [7], 1000 nM | 1.37 | –
FT3469 [7], 3000 nM | 1.12 | –
FT3469 [14], 4.1 nM | – | 0.963
FT3469 [14], 12.3 nM | – | 0.989
FT3469 [14], 37 nM | – | 1.02
FT3469 [14], 111.1 nM | – | 1.03
FT3469 [14], 333.3 nM | – | 0.843
FT3469 [14], 1000 nM | – | 1.07
FT3469 [14], 3000 nM | – | 0.638
